Literature values in patent US7892523B2, “Cosmetic process for the treatment of the skin with sun-protection products and sun-protection products combination” (Coty B.V., priority 2004, dated 2011).

Settings: known RPFs of standard antioxidants / usual formulations

| SMILES | radical protection factor (RPF) |
| --- | --- |
| Cc1c(C)c2c(c(C)c1O)CCC(C)(CCCC(C)CCCC(C)CCCC(C)C)O2 (racemic) [DL-α-tocopherol] | 41,200 ×10^14 radicals/mg |
| CC(=O)OC/C=C(C)/C=C/C=C(C)/C=C/C1=C(C)CCCC1(C)C [all-trans-retinol acetate] | 196 ×10^14 radicals/mg |
| CC1=C(/C=C/C(C)=C/C=C/C(C)=C/CO)C(C)(C)CCC1 [all-trans-retinol] | 827 ×10^14 radicals/mg |
| CC(=O)Oc1c(C)c(C)c2c(c1C)CCC(C)(CCC[C@H](C)CCC[C@H](C)CCCC(C)C)O2 (stereo partly drawn) [α-tocopherol acetate] | 48 ×10^14 radicals/mg |
